In PubChem BioAssay (NCI) one finds TGI and GI50 data, which are given here for 21 compounds.

Values joined by “and” are separate entries in the source; they are usually repeats but may differ in a detail not shown here. Equal entries are not always repeated.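 All cell lines were grown in 96-well plates and treated with compound for 48 hours. Here, GI50 denotes the concentration required for 50% inhibition of growth. TGI marks complete inhibition of growth.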

Some test systems named below: DLD-1 colon; DMS 114 small cell lung; KM20L2 colon; LXFL 529 NSCLC; M19-MEL melanoma; RXF-631 renal; SNB-78 CNS; MDA-N; XF 498 CNS; P388 leukemia; P388/ADR leukemia; SN12K1 renal.
Common to all, as to assay: NCI tumour cell line growth inhibition, 48 h

With `O=C(CCCC(=O)Nc1ccc(Cl)cc1Cl)CC(=O)c1ccc2ccccc2c1`, the TGI with DLD-1 colon, in the assay with DMS 114 small cell lung, in the assay with KM20L2 colon, with LXFL 529 NSCLC, in the assay on M19-MEL melanoma and in the assay with RXF-631 renal was more than 100 µM each time. For the same compound, in the assay on SNB-78 CNS, the TGI was more than 100 µM.

As to `CCCCCCCCOCC(COC(=O)CCCCCCC)OC(=O)CCCCCCC` (centres undefined), the TGI in the assay with DLD-1 colon, with DMS 114 small cell lung, with KM20L2 colon, in the assay with LXFL 529 NSCLC, in the assay with M19-MEL melanoma and in the assay on RXF-631 renal was more than 100 µM each time.

Turning to `COC12C(COC(=O)NCCO)C3=C(C(=O)C(C)=C(N)C3=O)N1CC1NC12` (centres undefined), the TGI in the assay with MDA-N is more than 264 µM.

Regarding `CC12OC(=O)C(C#N)C1(C)C1C(=O)CCCC12` (centres undefined), the TGI with DLD-1 colon, in the assay on DMS 114 small cell lung, in the assay with KM20L2 colon, with LXFL 529 NSCLC, in the assay on M19-MEL melanoma and with XF 498 CNS was more than 100 µM in each case.

For `CCOC(=O)/C(=C/c1ccccn1)C(=O)c1ccccc1`, the TGI with DLD-1 colon was 29.5 µM; with DMS 114 small cell lung it was 28.5 µM; in the assay on KM20L2 colon, 51.6 µM; in the assay with LXFL 529 NSCLC, 23.5 µM; in the assay with M19-MEL melanoma, 31.3 µM; in the assay with RXF-631 renal, 28.9 µM. In addition, the values for the TGI with SNB-78 CNS and in the assay on XF 498 CNS were 38.9 µM and 30.3 µM, respectively.

For `OCC1CC[N-]CC1.OCC1CC[N-]CC1.[Cl][Pt+2]([Cl])([Cl])[Cl]`, the GI50 in the assay with MDA-N is 28.9 µM.

For the compound `Cc1ccccc1C(CCCO)C(=O)O` (centres undefined), the TGI in the assay with DLD-1 colon, with DMS 114 small cell lung, with LXFL 529 NSCLC, in the assay on M19-MEL melanoma, in the assay with SNB-78 CNS and with XF 498 CNS was more than 100 µM throughout.

With `CC(=O)O[C@H]1CC2C(C3CC[C@H](C(C)CCC(=O)O)[C@]31C)[C@H](OC(C)=O)C[C@@H]1CC3(CC[C@]21C)OOC1(CCC(C)CC1)OO3` (some centres undefined), the TGI in the assay on MDA-N is 19.9 µM and 15 µM.

As to `CCc1cccc(CC)c1NC(=O)/C(Cl)=C(/Cl)C(=O)O`, the TGI in the assay with DLD-1 colon was 49.1 µM; with DMS 114 small cell lung, 40.9 µM; in the assay on KM20L2 colon, more than 71 µM; in the assay on LXFL 529 NSCLC, 20.9 µM; in the assay with M19-MEL melanoma, 46.5 µM; with SNB-78 CNS, 65.8 µM. This compound also returned a TGI in the assay on XF 498 CNS of 46.5 µM.

Take `NC1=NC(Cn2nc(-c3ccccc3)c3ccccc3c2=O)=NNC(=O)N1`: the TGI in the assay with DLD-1 colon, in the assay on LXFL 529 NSCLC, in the assay on M19-MEL melanoma and in the assay on SNB-78 CNS was more than 100 µM throughout.

As to `Nc1nc(=S)c2c(ncn2CCO)[nH]1`, the TGI in the assay on DLD-1 colon, in the assay with DMS 114 small cell lung, in the assay with KM20L2 colon, in the assay with LXFL 529 NSCLC, in the assay on M19-MEL melanoma and in the assay with SNB-78 CNS was more than 100 µM in each case.

Turning to `O=NN(CCCl)C(=O)NC1CCC(CC(=O)O)CC1` (centres undefined), the TGI in the assay on DLD-1 colon is more than 100 µM; with DMS 114 small cell lung it was more than 100 µM; with KM20L2 colon, more than 100 µM; with LXFL 529 NSCLC it was more than 100 µM; in the assay with M19-MEL melanoma it was more than 100 µM; with P388 leukemia, > 62.3 µM and 16.7 µM. Further, the TGI in the assay on P388/ADR leukemia is > 100 µM and 13.7 µM; with SN12K1 renal, more than 100 µM; in the assay on SNB-78 CNS it was more than 100 µM; in the assay on XF 498 CNS, more than 100 µM.

For the compound `CC(=O)Nc1ccc(C2CC(c3ccc([N+](=O)[O-])cc3)=Nc3ccccc3S2=O)cc1` (centres undefined), the TGI in the assay on DLD-1 colon stood at 34.5 µM; with DMS 114 small cell lung, 69.1 µM; in the assay on KM20L2 colon, 57.5 µM; in the assay on LXFL 529 NSCLC it was 34.6 µM; with M19-MEL melanoma it was 38 µM; in the assay with XF 498 CNS it was 55.8 µM.

As for `COc1ccc(-c2c(C3=NCCCN3)nnn2-c2ccccc2)cc1`, the TGI with DLD-1 colon, in the assay on DMS 114 small cell lung, in the assay on KM20L2 colon, in the assay with LXFL 529 NSCLC, in the assay with M19-MEL melanoma and with SNB-78 CNS was more than 100 µM in each case. Also, in the assay on XF 498 CNS, the TGI is more than 100 µM.

The compound `CCOC(=O)/C(=C\c1cccc(C)c1)C(C)=O` displayed a TGI with MDA-N of 31.4 µM.

As to `CCCCCC/C=C\CCCCCCCCC(=O)c1cccc(OC)c1OC`, in the assay on MDA-N, the TGI is more than 100 µM.

`CC(C)Cc1ccc(C(C)/C=C2\CCC(CN(C)C)C2=O)cc1` (centres undefined): the TGI in the assay on DLD-1 colon came out at 40 µM; with DMS 114 small cell lung it was 46.1 µM; in the assay with KM20L2 colon it was 51.4 µM; with LXFL 529 NSCLC, 22.6 µM; in the assay with M19-MEL melanoma, 37.5 µM; with MDA-N it was 22.2 µM. Moreover, the TGI in the assay with SNB-78 CNS is 36.3 µM; in the assay on XF 498 CNS it was 36.5 µM.

Consider `CCCC(=O)CC(C)C(=O)C(=O)NC12CC3CC(CC(C3)C1)C2` (centres undefined), for which the TGI in the assay on DLD-1 colon, in the assay with KM20L2 colon, in the assay on SNB-78 CNS and in the assay with XF 498 CNS was more than 100 µM throughout.

Compound `CCO/C=C1\SC(=S)N(c2ccc(OCC)cc2)C1=O` had a TGI in the assay on MDA-N of more than 100 µM.

Consider `COc1cc(/C=C/c2csnn2)cc(OC)c1OC`, for which the TGI in the assay with DLD-1 colon, with DMS 114 small cell lung, in the assay with LXFL 529 NSCLC, with M19-MEL melanoma, in the assay with SNB-78 CNS and in the assay on XF 498 CNS was more than 100 µM in each case.

On to `C[C@H](C(=O)O)C(=O)NC(=O)N(Cc1ccccc1)N=O`, for which the TGI in the assay on DLD-1 colon, in the assay on DMS 114 small cell lung, with KM20L2 colon, in the assay on LXFL 529 NSCLC, with M19-MEL melanoma and in the assay on SNB-78 CNS was more than 100 µM in each case. This compound yielded a TGI with XF 498 CNS of more than 100 µM.
